Reference: article PMC5742070 (Xenobiotica; the fate of foreign compounds in biological …, 2020)

Assays:
[1] = system: Caco-2 cells; settings: ref Gertz et al., 2013; cited from earlier work
[2] = system: CYP3A; experiment: MDZ kinetics used for initial estimates; type: biochemical, rat
[3] = substrate related parameter; ref Kotegawa et al., 2002, Matsuda et al., 2012; cited from earlier work
[4] = system: CYP3A; settings: substrate related parameter; ref Kirby et al., 2011; cited from earlier work

Structure (SMILES) | Papp [1] | kcat (k3) ([2]; initial estimate from experimental samples without inhibitor) | Km ([2]; rat, liver microsomes) | Fg (fraction escaping gut) [3] | fm (fraction metabolized by CYP3A) [4]
CC[C@H]1OC(=O)[C@H](C)[C@@H](O[C@H]2C[C@@](C)(OC)[C@@H](O)[C@H](C)O2)[C@H](C)[C@@H](O[C@@H]2O[C@H](C)C[C@H](N(C)C)[C@H]2O)[C@](C)(O)C[C@@H](C)C(=O)[C@H](C)[C@@H](O)[C@]1(C)O [ERY, erythromycin] | 0.44 ×10⁻⁶ cm/s |  |  |  | 
Cc1ncc2n1-c1ccc(Cl)cc1C(c1ccccc1F)=NC2 [MDZ, midazolam] | 32.4 ×10⁻⁶ cm/s | approx. 10 min^−1 | 10 µM | 0.75 | 0.93
